Converted amounts (≈) assume the structure as drawn.
Experiments:
[1] = Aqueous solubility in phosphate buffer at pH 6.5 by lyophilisation solubility assay; assay type: physicochemical
[2] = Metabolic stability in mouse liver microsomes assessed as intrinsic clearance per mg protein; assay type: ADME, Microsome
[3] = Metabolic stability in human liver microsomes assessed as intrinsic clearance per mg protein; assay type: ADME, Microsome

Work on N#Cc1ccc(C(=O)NCC(=O)NC(c2ccccc2)c2ccc(Cl)cc2)cc1 (centres undefined) yielded a solubility [1] of 7 µg/mL (≈ 17.3 µM) and a microsomal CLint [2] of 8.6 µL/min/mg.
In the case of O=C(CNC(=O)c1ccc(F)cc1)NC(c1cccc(F)c1)c1cccc(F)c1, the solubility [1] is reported as < 1 µg/mL and the microsomal CLint [3] is reported as 9.7 µL/min/mg.
With O=C(CNC(=O)c1ccc(F)cc1)NC(c1ccccc1)c1cccc(C(F)(F)F)c1 (centres undefined) the solubility [1] was < 1 µg/mL and the microsomal CLint [2] was 19.3 µL/min/mg.
For O=C(CCc1ccccc1)NCC(=O)NC(c1ccccc1)c1ccc(Cl)cc1 (centres undefined), the solubility [1] was < 1 µg/mL, the microsomal CLint [2] was 926 µL/min/mg and the microsomal CLint [3] was 887 µL/min/mg.

— ChEMBL document CHEMBL1144246, “Design, synthesis and structure-activity relationship of simple bis-amides as potent inhibitors of GlyT1” (Bioorg Med Chem Lett, 2008)
